Source: US4461899A, “Fluorenecarboxylic acid derivatives” (Diamond Shamrock Chemicals Company, priority 1982, dated 1984)
Entries after “also recorded” stand apart in the source; their conditions may differ. Where a name gives a salt, the structure may show the parent alone.

Tests used:
Assay type in all cases: in vivo
[1] = test system: soybean plants; test: Soybean yield after foliar spray at early flowering stage; conditions: for Yield Improvement %: vs control
Excerpt: Two 50 cm rows of soybean plants at the early flowering stage were sprayed with 100 ppm or 500 ppm of the cis-2,5-dimethylpyrrolidine salt of 9-fluorenecarboxylic acid, using a spray volume of about 375 liters/hectare (40 gallons/acre). For comparison, other rows were sprayed with like concentrations of two known compounds as designated below. Also 2 untreated rows were maintained to serve as a control: each of the plots was weeded by hand as needed. At maturity, each plot was harvested and the yield was determined.

[2] = test system: field grown tomato plants; test: Fruit set and phytotoxicity in field grown tomato plants; conditions: for Increase Over Control (%) of fruit set: 24 days; for Fruit Set Per Plant (After 24 days) / Phytotoxicity: 24 days after treatment; for Increase (%) of fruit set: initial to 24 days
Excerpt: To determine fruit set effects by compounds of this invention, field grown tomato plants were foliage sprayed with the cis-2,5-dimethylpyrrolidine salt of […], 9-cis-2,5-dimethyl-1-pyrrolidinyl-2-chlorofluorene-9-carboxylic acid, methyl ester, and the commercial plant growth regulant, MAINTAIN CF-125 (methyl-2-chloro-9hydroxyfluorene-9-carboxylate, manufactured by U.S. Borax and Chemical Corp.). Rates of application employed were 5, 25, and 100 ppm when the tomato plants were in the late blooming to early fruit setting stage. Untreated plants were included in the test as controls. Five plants were sprayed for each chemical treatment. The number of fruit set and the degree of phytotoxicity to the plants were determined 24 days after treatment.

[3] = test system: field grown tomato plants; test: Overall yield and fruit size of field grown tomatoes; conditions: for tomato yield / fruit size, in words: 10, 50 and 500 ppm, Example 1 decrease at 500 ppm; for Fruit Size, Green (% of Control): control 104.0 g; for Fruit Size, Red (% of Control): control 105.5 g
Excerpt: This example illustrates the effects of compounds of this invention on overall yield of tomatoes. For the test, field grown tomato plants, when in the early flowering stage, were foliage sprayed with the particular compounds of the invention designated below, and with the commercial product CF-125 (Maintain), at rates of 10, 50 and 500 ppm. These rates correspond to applications of 3.69 g, 18.54 g and 185.4 g/hectare, respectively. Each treatment consisted of five plants; the experimental design was a complete randomized block with three replications. A block of untreated plants was included as the control. The fruit was harvested by hand and separated into […] ripe fruit and marketable green fruit.

[4] = test system: Kentucky and Merion turfgrass mixture; test: Turfgrass growth retardation (height and fresh weight of clippings) after spraying; conditions: for % Reduction in Weight / Reduction in Height: vs control
Description: Two known plant growth regulants were similarly tested. Some grass samples were not treated, only fertilized, as controls. Before treatment, the grass was cut and then fertilized with a 20-20-20 water-soluble fertilizer. Three pots were sprayed per treatment. […] The pots were placed in a plant growth room and were watered daily. The grass was cut at 21, 49 and 84 days after being treated; the blade height and total fresh weight of the clippings were measured.

[5] = test system: "Walter" variety tomato plants; test: Yield of "Walter" variety tomatoes, weekly harvest of mature red fruit; conditions: for Total Fruit / Total Fruit, % of Control: weeks 1-6
Excerpt: Compounds of this invention were further tested as tomato yield enhancers as follows:
"Walter" variety tomato plants, in the early flowering stage, were foliage sprayed at a rate of 68.8 liters/hectare with compounds of this invention, and with the commercial product, CF-125. Each plot consisted of 20 plants; the experimental design was a completed randomized block with three replications. A plot of untreated plants was included as a control. Marketable, mature red tomatoes were harvested weekly, beginning 5 weeks after treatment.

[6] = 1.12 kilogram/hectare, after 21 days
[7] = 1.12 kilogram/hectare, after 49 days
[8] = 1.12 kilogram/hectare, after 84 days
[9] = 2.24 kilogram/hectare, after 21 days
[10] = 2.24 kilogram/hectare, after 49 days
[11] = 2.24 kilogram/hectare, after 84 days
[12] = 4.48 kilogram/hectare, after 49 days
[13] = 4.48 kilogram/hectare, after 84 days

## C[C@@H]1CC[C@H](C)N1.O=C(O)C1c2ccccc2-c2ccccc21 [Example 15, Cis-2,5-dimethylpyrrolidine salt of 9-fluorenecarboxylic acid]
[1]; particularly at 500 ppm, over untreated control and fluorenecarboxylic acids
  soybean yield, in words: significantly enhances soybean yield over the untreated control plot and over plots treated with known morphactins

## O=C(O)c1cccc2c1Cc1ccccc1-2 [Example 1, cis-2,5-dimethyl-1-pyrrolidine salt of 1-fluorenecarboxylic acid]
[1]; 100 ppm
  Yield (Kilograms) × 10^2: 19.38 Kilograms × 10^2
  Yield Improvement %: 9.8%
[1]; 500 ppm
  Yield (Kilograms) × 10^2: 21.98 Kilograms × 10^2
  Yield Improvement %: 24.1%
[2]; 5 ppm
  Increase Over Control (%) of fruit set: 35%
  Fruit Set Per Plant (After 24 days): 16.2
  Phytotoxicity: 0
  Fruit Set Per Plant (Initial): 7.6
  Increase (%) of fruit set: 108%
[2]; 25 ppm
  Increase Over Control (%) of fruit set: 18%
  Fruit Set Per Plant (After 24 days): 21.0
  Phytotoxicity: 0
  Fruit Set Per Plant (Initial): 11.0
  Increase (%) of fruit set: 91%
[2]; 100 ppm
  Increase Over Control (%) of fruit set: 47%
  Fruit Set Per Plant (After 24 days): 23.8
  Phytotoxicity: light
  Fruit Set Per Plant (Initial): 10.8
  Increase (%) of fruit set: 120%
[3]
  tomato yield / fruit size, in words: enhanced, at the rates applied, either the total yield of tomatoes and/or the percentage of red fruit vs. green fruit; also recorded: caused a decrease in all yields when applied at a rate of 500 ppm
[3]; 10 ppm
  Fruit Yield, Green (% of Control): 92 % of Control
  Fruit Yield, Red (% of Control): 152 % of Control
  Total Yield (% of Control): 113 % of Control
  Fruit Size, Green (% of Control): 76 % of Control
  Fruit Size, Red (% of Control): 87 % of Control
[3]; 50 ppm
  Fruit Yield, Green (% of Control): 45 % of Control
  Fruit Yield, Red (% of Control): 149 % of Control
  Total Yield (% of Control): 80 % of Control
  Fruit Size, Green (% of Control): 93 % of Control
  Fruit Size, Red (% of Control): 73 % of Control
[3]; 500 ppm
  Fruit Yield, Green (% of Control): 54 % of Control
  Fruit Yield, Red (% of Control): 68 % of Control
  Total Yield (% of Control): 59 % of Control
  Fruit Size, Green (% of Control): 87 % of Control
  Fruit Size, Red (% of Control): 79 % of Control
[4]; [6]
  % Reduction in Weight: 76%
  Reduction in Height: 50%
[4]; [7]
  % Reduction in Weight: 45%
  Reduction in Height: 45%
[4]; [8]
  % Reduction in Weight: 0%
  Reduction in Height: 0%
[4]; [9]
  % Reduction in Weight: 73%
  Reduction in Height: 48%
[4]; [10]
  % Reduction in Weight: 64%
  Reduction in Height: 46%
[4]; [11]
  % Reduction in Weight: 0%
  Reduction in Height: 0%
[4]; 4.48 kilogram/hectare, after 21 days
  Reduction in Height: 56%
[4]; [12]
  % Reduction in Weight: 63%
  Reduction in Height: 46%
[4]; [13]
  % Reduction in Weight: 19%
  Reduction in Height: 31%
[4]; in words
  appearance of treated turf (leaf, texture): fine leaf and smooth texture; it did not have the twisted, yellowish leaves
[4]; in words, compared with MAINTAIN CF-125 and MOW-LESS
  activity in controlling grass growth: more active in controlling grass growth than either MAINTAIN CF-125 or MOW-LESS
[4]; third dosage column, printed 1.12 kilogram/hectare, after 21 days
  % Reduction in Weight: 75%

## O=C(O)c1cccc2c1Cc1ccccc1-2 [1-fluorenecarboxylic acid]
[1]; 100 ppm
  Yield (Kilograms) × 10^2: 17.16 Kilograms × 10^2
  Yield Improvement %: -2.7%
[1]; 500 ppm
  Yield (Kilograms) × 10^2: 17.34 Kilograms × 10^2
  Yield Improvement %: -1.5%

## COC(=O)C1(N2[C@H](C)CC[C@@H]2C)c2ccccc2-c2ccc(Cl)cc21 (stereo partly drawn) [Example 8, 9-cis-2,5-dimethyl-1-pyrrolidinyl-2-chlorofluorene-9-carboxylic acid, methyl ester]
[5]; 5-10 ppm
  increased tomato yields above the yield of control plots: 39-80%
[5]; 5 ppm
  Fruit Yield (kg/plot): 32.8 kg/plot
  Total Yield Wt. % of Control: 139.0 % of Control
  Fruit harvested, Harvest Time (Week) 1: 11
  Fruit harvested, Harvest Time (Week) 2: 109
  Fruit harvested, Harvest Time (Week) 3: 103
  Fruit harvested, Harvest Time (Week) 4: 168
  Fruit harvested, Harvest Time (Week) 5: 208
  Fruit harvested, Harvest Time (Week) 6: 286
  Total Fruit: 885
  Total Fruit, % of Control: 154 % of Control
[5]; 10 ppm
  Fruit Yield (kg/plot): 42.6 kg/plot
  Total Yield Wt. % of Control: 180.5 % of Control
  Fruit harvested, Harvest Time (Week) 1: 13
  Fruit harvested, Harvest Time (Week) 2: 123
  Fruit harvested, Harvest Time (Week) 3: 126
  Fruit harvested, Harvest Time (Week) 4: 240
  Fruit harvested, Harvest Time (Week) 5: 306
  Fruit harvested, Harvest Time (Week) 6: 296
  Total Fruit: 1104
  Total Fruit, % of Control: 192 % of Control
[5]; 50 ppm
  Fruit Yield (kg/plot): 15.4 kg/plot
  Total Yield Wt. % of Control: 65.3 % of Control
  Fruit harvested, Harvest Time (Week) 1: 34
  Fruit harvested, Harvest Time (Week) 2: 150
  Fruit harvested, Harvest Time (Week) 3: 81
  Fruit harvested, Harvest Time (Week) 4: 25
  Fruit harvested, Harvest Time (Week) 5: 9
  Fruit harvested, Harvest Time (Week) 6: 100
  Total Fruit: 399
  Total Fruit, % of Control: 69 % of Control
[2]; 5 ppm
  Increase Over Control (%) of fruit set: 36%
  Fruit Set Per Plant (After 24 days): 19.6
  Phytotoxicity: 0
  Fruit Set Per Plant (Initial): 9.4
  Increase (%) of fruit set: 109%
[2]; 25 ppm
  Increase Over Control (%) of fruit set: 9%
  Fruit Set Per Plant (After 24 days): 18.6
  Phytotoxicity: 0
  Fruit Set Per Plant (Initial): 10.2
  Increase (%) of fruit set: 82%
[2]; 100 ppm
  Increase Over Control (%) of fruit set: -23%
  Fruit Set Per Plant (After 24 days): 15.6
  Fruit Set Per Plant (Initial): 10.4
  Increase (%) of fruit set: 50%
[3]
  tomato yield / fruit size, in words: became inhibitory above the 50 ppm rate
[3]; 10 ppm
  Fruit Yield, Green (% of Control): 64 % of Control
  Fruit Yield, Red (% of Control): 161 % of Control
  Total Yield (% of Control): 97 % of Control
  yield of red fruit over the control yield: 61%
  Fruit Size, Green (% of Control): 93 % of Control
  Fruit Size, Red (% of Control): 82 % of Control
[3]; 50 ppm
  Fruit Yield, Green (% of Control): 26 % of Control
  Fruit Yield, Red (% of Control): 93 % of Control
  Total Yield (% of Control): 49 % of Control
  Fruit Size, Green (% of Control): 46 % of Control
  Fruit Size, Red (% of Control): 95 % of Control
[3]; 500 ppm
  Fruit Yield, Green (% of Control): 0 % of Control
  Fruit Yield, Red (% of Control): 76 % of Control
  Total Yield (% of Control): 26 % of Control
  Fruit Size, Green (% of Control): 0 % of Control
  Fruit Size, Red (% of Control): 67 % of Control

## O=C(O)C1c2ccccc2-c2ccccc21 [9-fluorenecarboxylic acid]
[1]; 100 ppm
  Yield (Kilograms) × 10^2: 18.93 Kilograms × 10^2
  Yield Improvement %: 7.3%
[1]; 500 ppm
  Yield (Kilograms) × 10^2: 19.02 Kilograms × 10^2
  Yield Improvement %: 7.5%
